Measured values from PubChem BioAssay (NCI).
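Exposure lasted 48 hours, with cells grown in 96-well plates and compounds tested at five concentrations. GI50: concentration for 50% inhibition of growth. TGI: concentration producing complete growth inhibition.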

How the values were obtained:
Experiment in all cases: NCI anticancer screen, dose series, 48 h
A549 NSCLC = system: A549 NSCLC
DU-145 prostate = system: DU-145 prostate
HCT-15 colon = system: HCT-15 colon
HT29 colon = system: HT29 colon
KM12 colon = system: KM12 colon
NCI/ADR-RES ovarian = system: NCI/ADR-RES ovarian
OVCAR-5 ovarian = system: OVCAR-5 ovarian
RXF 393 renal = system: RXF 393 renal
SF-268 CNS = system: SF-268 CNS
T-47D breast = system: T-47D breast

Row | SMILES | GI50 (A549 NSCLC) | TGI (A549 NSCLC) | GI50 (DU-145 prostate) | TGI (DU-145 prostate) | GI50 (HCT-15 colon) | TGI (HCT-15 colon) | GI50 (HT29 colon) | TGI (HT29 colon) | GI50 (KM12 colon) | TGI (KM12 colon) | GI50 (NCI/ADR-RES ovarian) | TGI (NCI/ADR-RES ovarian) | GI50 (OVCAR-5 ovarian) | TGI (OVCAR-5 ovarian) | GI50 (RXF 393 renal) | TGI (RXF 393 renal) | GI50 (SF-268 CNS) | TGI (SF-268 CNS) | GI50 (T-47D breast) | TGI (T-47D breast)
1 | Nc1nonc1-c1nc2ccccc2n1Cc1ccc(F)cc1 | 5.69 µM | > 100 µM | > 100 µM | > 100 µM | 3600 nM | > 100 µM | 3.55 µM | > 100 µM | 3710 nM | > 100 µM | 4.16 µM | > 100 µM | > 100 µM | > 100 µM | 4420 nM | > 100 µM | 9.61 µM | > 100 µM | > 100000 nM | > 100 µM
2 | O=C(O)C1CC=CCC1C(=O)Nc1cccc(O)c1 (stereo not given) | – | > 100 µM | – | > 100 µM | – | > 100 µM | – | > 100 µM | – | > 100 µM | – | > 100 µM | – | > 100 µM | – | > 100 µM | – | > 100 µM | – | > 100 µM
3 | COc1cc(Cl)cc(-c2nn(-c3cccc(NC(=O)Nc4cccc(C(F)(F)F)c4)c3)cc2-c2ccncc2)c1 | 0.726 µM | 7.42 µM | 2.61 µM | > 100 µM | 1340 nM | 10.6 µM | 1.51 µM | 6.24 µM | 611 nM | 4.79 µM | 1.65 µM | 7.81 µM | 3.06 µM | 30.1 µM | 1400 nM | 4.35 µM | 2.56 µM | 17.1 µM | 1230 nM | 6.99 µM
4 | Cc1c(Cl)c(=O)oc2cc(OC/C=C3\CCC(=O)O3)ccc12 | 58.2 µM | > 100 µM | 14 µM | 29.4 µM | 15300 nM | 30 µM | 17.2 µM | 43.3 µM | 26100 nM | 75.3 µM | 24.1 µM | 59.4 µM | 27.8 µM | 80 µM | 23500 nM | > 100 µM | 18.8 µM | 64.3 µM | 13600 nM | 36.2 µM
5 | O=C1Nc2cc(-c3cccc(O)c3)ccc2/C1=C/c1ccc[nH]1 | 3.05 µM | 11.8 µM | 3.16 µM | 23.6 µM | 271 nM | 12.7 µM | 4.71 µM | 30.6 µM | 225 nM | 2.52 µM | 2.51 µM | 12.5 µM | 2.89 µM | 15.4 µM | 476 nM | 2.73 µM | 1.76 µM | 8.04 µM | 170 nM | 0.472 µM
